The values that follow come from US8471005B2 (Cephalon, Inc., priority 2008, dated 2013).

One assay has as its target T1, JAK2 (Homo sapiens, UniProt O60674).
T1 construct: host or cells: baculovirus expression system
Description: Recombinant Human JAK2 Kinase Assay (TRF). The following applies: JAK2 Kinase Inhibition; read-out: JAK2 Potency. The assay is classed as biochemical. The method, boiled down: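 TRF read-out: Eu-N1 PY100 anti-phosphotyrosine antibody detects product. Enzyme is baculovirus-expressed JAK2 at 15 ng/ml; substrate is a biotinyl 15-mer peptide bound to Neutravidin-coated wells. Buffer 20 mM HEPES pH 7.2, 0.2 μM ATP, 1 mM MnCl2, 0.1% BSA, 2.5% DMSO final; 20 min, RT.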

The next assay deals with T2, ALK (Homo sapiens, UniProt Q9UM73).
T2 construct: host or cells: baculovirus expression system
T2 sequence (Q9UM73 19-1620): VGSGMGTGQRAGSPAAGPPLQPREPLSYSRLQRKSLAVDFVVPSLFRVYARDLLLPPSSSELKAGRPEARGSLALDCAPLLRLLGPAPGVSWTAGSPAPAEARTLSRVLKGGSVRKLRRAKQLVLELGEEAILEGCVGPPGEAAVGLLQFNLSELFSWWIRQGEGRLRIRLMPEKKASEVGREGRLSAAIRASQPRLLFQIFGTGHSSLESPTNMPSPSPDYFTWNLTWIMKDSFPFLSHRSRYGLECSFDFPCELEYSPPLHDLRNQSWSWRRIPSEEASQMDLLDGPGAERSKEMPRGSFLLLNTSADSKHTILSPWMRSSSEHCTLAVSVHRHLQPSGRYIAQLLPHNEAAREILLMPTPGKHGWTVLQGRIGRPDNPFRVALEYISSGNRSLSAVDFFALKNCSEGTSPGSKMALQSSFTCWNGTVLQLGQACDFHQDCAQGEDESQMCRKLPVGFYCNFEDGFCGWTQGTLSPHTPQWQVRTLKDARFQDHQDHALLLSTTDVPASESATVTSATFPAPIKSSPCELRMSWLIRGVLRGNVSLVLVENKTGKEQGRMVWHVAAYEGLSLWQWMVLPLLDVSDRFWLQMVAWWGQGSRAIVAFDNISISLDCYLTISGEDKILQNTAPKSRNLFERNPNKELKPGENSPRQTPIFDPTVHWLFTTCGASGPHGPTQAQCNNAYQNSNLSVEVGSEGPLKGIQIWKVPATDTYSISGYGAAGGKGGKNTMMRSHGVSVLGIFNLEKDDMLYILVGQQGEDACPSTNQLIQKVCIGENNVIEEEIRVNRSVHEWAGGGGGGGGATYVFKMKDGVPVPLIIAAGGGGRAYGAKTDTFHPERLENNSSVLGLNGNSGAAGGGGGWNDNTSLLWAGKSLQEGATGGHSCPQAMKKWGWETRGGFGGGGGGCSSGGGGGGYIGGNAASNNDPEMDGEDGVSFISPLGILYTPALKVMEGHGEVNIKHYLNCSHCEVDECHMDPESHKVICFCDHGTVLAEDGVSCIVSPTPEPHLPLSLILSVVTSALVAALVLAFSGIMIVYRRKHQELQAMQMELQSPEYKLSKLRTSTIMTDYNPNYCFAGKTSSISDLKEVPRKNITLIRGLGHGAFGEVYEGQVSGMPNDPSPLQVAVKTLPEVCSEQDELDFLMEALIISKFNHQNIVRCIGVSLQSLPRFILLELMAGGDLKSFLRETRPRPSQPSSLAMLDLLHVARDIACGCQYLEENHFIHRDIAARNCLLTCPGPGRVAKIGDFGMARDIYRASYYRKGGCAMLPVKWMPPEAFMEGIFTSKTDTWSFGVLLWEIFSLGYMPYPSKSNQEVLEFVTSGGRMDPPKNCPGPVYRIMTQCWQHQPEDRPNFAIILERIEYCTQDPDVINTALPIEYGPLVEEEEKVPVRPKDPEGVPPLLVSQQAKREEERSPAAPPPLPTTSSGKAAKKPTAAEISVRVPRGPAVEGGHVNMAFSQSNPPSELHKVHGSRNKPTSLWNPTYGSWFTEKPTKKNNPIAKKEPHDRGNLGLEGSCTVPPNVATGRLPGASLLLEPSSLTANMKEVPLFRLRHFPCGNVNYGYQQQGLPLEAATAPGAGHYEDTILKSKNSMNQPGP
The experiment in a line: ALK Kinase Assay (ELISA/TRF, PLC-γ substrate). Conditions: ALK Kinase Inhibition; read-out: ALK Potency. The format is biochemical. The method, boiled down: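 PLC-γ substrate coated at 10 μg/mL in TBS; reaction started with 30 ng/ml ALK, run 15 min at 37° C. Phosphoproduct detected by TRF with Eu-N1-labeled PT66 anti-phosphotyrosine antibody. IC50 from sigmoidal variable-slope fit of percent inhibition versus log concentration.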

Structures are written as SMILES.

T1 sequence (O60674 whole entry): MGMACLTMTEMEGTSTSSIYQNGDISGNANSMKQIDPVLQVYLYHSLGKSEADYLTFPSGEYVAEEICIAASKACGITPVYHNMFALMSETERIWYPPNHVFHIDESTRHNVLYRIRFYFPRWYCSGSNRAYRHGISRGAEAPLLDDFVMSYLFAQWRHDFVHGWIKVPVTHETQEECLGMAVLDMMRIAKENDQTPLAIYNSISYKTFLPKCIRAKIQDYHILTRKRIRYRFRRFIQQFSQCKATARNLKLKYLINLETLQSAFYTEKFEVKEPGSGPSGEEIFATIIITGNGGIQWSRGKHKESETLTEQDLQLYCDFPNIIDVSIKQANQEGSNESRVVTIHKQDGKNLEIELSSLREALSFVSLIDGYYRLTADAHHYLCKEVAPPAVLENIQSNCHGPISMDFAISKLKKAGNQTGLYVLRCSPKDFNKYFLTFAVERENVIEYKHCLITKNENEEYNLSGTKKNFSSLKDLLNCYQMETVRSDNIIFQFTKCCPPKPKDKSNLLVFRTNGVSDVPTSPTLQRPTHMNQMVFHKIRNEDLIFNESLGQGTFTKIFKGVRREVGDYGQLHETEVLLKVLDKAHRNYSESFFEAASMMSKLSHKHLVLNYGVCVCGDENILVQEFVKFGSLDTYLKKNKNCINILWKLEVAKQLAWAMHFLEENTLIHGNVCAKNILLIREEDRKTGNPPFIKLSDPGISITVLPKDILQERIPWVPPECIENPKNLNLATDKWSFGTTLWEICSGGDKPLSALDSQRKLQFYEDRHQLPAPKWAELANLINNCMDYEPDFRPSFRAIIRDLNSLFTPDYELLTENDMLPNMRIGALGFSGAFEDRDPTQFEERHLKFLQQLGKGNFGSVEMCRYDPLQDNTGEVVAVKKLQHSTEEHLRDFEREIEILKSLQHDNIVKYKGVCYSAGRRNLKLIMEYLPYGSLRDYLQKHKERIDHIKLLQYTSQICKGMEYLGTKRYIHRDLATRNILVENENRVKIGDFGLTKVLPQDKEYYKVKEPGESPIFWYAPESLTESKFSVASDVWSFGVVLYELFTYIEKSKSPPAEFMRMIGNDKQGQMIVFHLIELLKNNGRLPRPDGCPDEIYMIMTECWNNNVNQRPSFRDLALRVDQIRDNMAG

In the case of `CC(C)(C)NS(=O)(=O)c1cccc(-c2ccc3cnc(Nc4cccc(-n5cccn5)c4)nn23)c1` [Example 1386, N-tert-Butyl-3-[2-(3-pyrazol-1-yl-phenylamino)-pyrrolo[2,1-f][1,2,4]triazin-7-yl]-benzenesulfonamide], the results for the IC50 on JAK2 and on ALK were under 100 nM and 1000 to 10000 nM, respectively.
With `CC(=O)Nc1cc(Nc2ncc3ccc(-c4cccc(S(=O)(=O)NC(C)(C)C)c4)n3n2)ccc1C(C)(C)C` [Example 1387, N-{2-tert-Butyl-5-[7-(3-tert-butylsulfamoyl-phenyl)-pyrrolo[2,1-f][1,2,4]triazin-2-ylamino]-phenyl}-acetamide], the IC50 was under 100 nM on JAK2 and 100 to 1000 nM at ALK.
The like results for `CC(=O)N1CC(C)(C)c2ccc(Nc3ncc4ccc(-c5cccc(S(=O)(=O)NC(C)(C)C)c5)n4n3)cc21` [Example 1388, 3-[2-(1-Acetyl-3,3-dimethyl-2,3-dihydro-1H-indol-6-ylamino)-pyrrolo[2,1-f][1,2,4]triazin-7-yl]-N-tert-butyl-benzenesulfonamide] were, in that order, under 100 nM and 100 to 1000 nM.
Regarding `Cn1cc(-c2ccc3cnc(Nc4cccc(NS(C)(=O)=O)c4)nn23)cn1` [Example 1389, N-{3-[7-(1-Methyl-1H-pyrazol-4-yl)-pyrrolo[2,1-f][1,2,4]triazin-2-ylamino]-phenyl}-methanesulfonamide], the IC50 at JAK2 was under 100 nM; on ALK, 1000 to 10000 nM.
On to `CC(C)(C)NS(=O)(=O)c1cccc(-c2ccc3cnc(Nc4cccc(C(N)=O)c4)nn23)c1` [Example 1390, 3-[7-(3-tert-Butylsulfamoyl-phenyl)-pyrrolo[2,1-f][1,2,4]triazin-2-ylamino]-benzamide], for which the IC50 was under 100 nM on JAK2 and 1000 to 10000 nM at ALK.
The like results for `CC(C)(C)NS(=O)(=O)c1cccc(-c2ccc3cnc(Nc4cccc(-n5cnnc5)c4)nn23)c1` [Example 1391, N-tert-Butyl-3-[2-(3-[1,2,4]triazol-4-yl-phenylamino)-pyrrolo[2,1-f][1,2,4]triazin-7-yl]-benzenesulfonamide] were, in that order, under 100 nM and 100 to 1000 nM.
The like results for `CN1CCN(c2cccc(Nc3ncc4ccc(-c5cccc(N6CCOCC6)c5)n4n3)c2)CC1` [Example 1392, [3-(4-Methyl-piperazin-1-yl)-phenyl]-[7-(3-morpholin-4-yl-phenyl)-pyrrolo[2,1-f][1,2,4]triazin-2-yl]-amine] were, in that order, under 100 nM and 100 to 1000 nM.
On the same counts, the results for `CC(C)(C)NS(=O)(=O)c1cccc(-c2ccc3cnc(Nc4cccc(N5CCOCC5)c4)nn23)c1` [Example 1393, N-tert-Butyl-3-[2-(3-morpholin-4-yl-phenylamino)-pyrrolo[2,1-f][1,2,4]triazin-7-yl]-benzenesulfonamide] are under 100 nM and 100 to 1000 nM.
For the molecule `CC(C)(C)NS(=O)(=O)c1cccc(-c2ccc3cnc(Nc4ccc(F)c(N5CCOCC5)c4)nn23)c1` [Example 1394, N-tert-Butyl-3-[2-(4-fluoro-3-morpholin-4-yl-phenylamino)-pyrrolo[2,1-f][1,2,4]triazin-7-yl]-benzenesulfonamide], the values for the IC50 on JAK2 and on ALK were under 100 nM and 100 to 1000 nM, respectively.
The like results for `CC(C)(C)NS(=O)(=O)c1cccc(-c2ccc3cnc(Nc4ccc(N5CCOCC5)c(F)c4)nn23)c1` [Example 1395, N-tert-Butyl-3-[2-(3-fluoro-4-morpholin-4-yl-phenylamino)-pyrrolo[2,1-f][1,2,4]triazin-7-yl]-benzenesulfonamide] were, in that order, under 100 nM and 100 to 1000 nM.
For `COc1cccc(Nc2ncc3ccc(-c4cccc(S(=O)(=O)NC(C)(C)C)c4)n3n2)c1` [Example 1396, N-tert-Butyl-3-[2-(3-methoxy-phenylamino)-pyrrolo[2,1-f][1,2,4]triazin-7-yl]-benzenesulfonamide], the IC50 is under 100 nM on JAK2 and 1000 to 10000 nM on ALK.
Take `COCC(C)OC(=O)COc1ccccc1-c1ccc2cnc(Nc3ccc(N4CCN(C)CC4)c(F)c3)nn12` (stereo not drawn) [Example 1397, (2-{2-[3-Fluoro-4-(4-methyl-piperazin-1-yl)-phenylamino]-pyrrolo[2,1-f][1,2,4]triazin-7-yl}-phenoxy)-acetic acid 2-methoxy-1-methyl-ethyl ester]: the IC50 at JAK2 is under 100 nM; on ALK, 1000 to 10000 nM.
`CC(=O)Nc1cc(Nc2ncc3ccc(-c4cccc(S(=O)(=O)NC(C)(C)C)c4)n3n2)ccc1C` [Example 1398, N-{5-[7-(3-tert-Butylsulfamoyl-phenyl)-pyrrolo[2,1-f][1,2,4]triazin-2-ylamino]-2-methyl-phenyl}-acetamide]: the IC50 is under 100 nM at JAK2 and 100 to 1000 nM on ALK.
On to `CC(C)(C)NS(=O)(=O)c1cccc(-c2ccc3cnc(Nc4ccc(C(N)=O)cc4)nn23)c1` [Example 1399, 4-[7-(3-tert-Butylsulfamoyl-phenyl)-pyrrolo[2,1-f][1,2,4]triazin-2-ylamino]-benzamide], for which the IC50 at JAK2 is under 100 nM; on ALK, 1000 to 10000 nM.
For the molecule `CC(C)(C)NS(=O)(=O)c1cccc(-c2ccc3cnc(Nc4ccc(Cl)cc4)nn23)c1` [Example 1400, N-tert-Butyl-3-[2-(4-chloro-phenylamino)-pyrrolo[2,1-f][1,2,4]triazin-7-yl]-benzenesulfonamide], the IC50 on JAK2 is under 100 nM; at ALK, 1000 to 10000 nM.
On the same counts, the results for `CN1CCN(c2ccc(Nc3ncc4ccc(-c5ccccc5OCC(=O)O)n4n3)cc2F)CC1` [Example 1401, (2-{2-[3-Fluoro-4-(4-methyl-piperazin-1-yl)-phenylamino]-pyrrolo[2,1-f][1,2,4]triazin-7-yl}-phenoxy)-acetic acid] are under 100 nM and 100 to 1000 nM.
The like results for `CC(C)(C)NS(=O)(=O)c1cccc(-c2ccc3cnc(Nc4ccc(-c5cnco5)cc4)nn23)c1` [Example 1402, N-tert-Butyl-3-[2-(4-oxazol-5-yl-phenylamino)-pyrrolo[2,1-f][1,2,4]triazin-7-yl]-benzenesulfonamide] were, in that order, under 100 nM and 1000 to 10000 nM.
On the same counts, the results for `CN1CCN(c2ccc(Nc3ncc4ccc(-c5ccccc5OCC(=O)N(C)C)n4n3)cc2)CC1` [Example 1403, N,N-Dimethyl-2-(2-{2-[4-(4-methyl-piperazin-1-yl)-phenylamino]-pyrrolo[2,1-f][1,2,4]triazin-7-yl}-phenoxy)-acetamide] are under 100 nM and 100 to 1000 nM.
As for `CN1CCN(c2ccc(Nc3ncc4ccc(-c5ccccc5OCC(=O)N(C)C)n4n3)cc2F)CC1` [Example 1404, 2-(2-{2-[3-Fluoro-4-(4-methyl-piperazin-1-yl)-phenylamino]-pyrrolo[2,1-f][1,2,4]triazin-7-yl}-phenoxy)-N,N-dimethyl-acetamide], the IC50 was under 100 nM at JAK2 and 100 to 1000 nM at ALK.
The like results for `COc1ccc(-c2ccc3cnc(Nc4ccc(CN5CCCC5)cc4)nn23)cn1` [Example 1405, [7-(6-Methoxy-pyridin-3-yl)-pyrrolo[2,1-f][1,2,4]triazin-2-yl]-(4-pyrrolidin-1-ylmethyl-phenyl)-amine] were, in that order, under 100 nM and 1000 to 10000 nM.
The like results for `COc1ccc(-c2ccc3cnc(Nc4ccc(C(=O)N5CCOCC5)cc4)nn23)cn1` [Example 1406, {4-[7-(6-Methoxy-pyridin-3-yl)-pyrrolo[2,1-f][1,2,4]triazin-2-ylamino]-phenyl}-morpholin-4-yl-methanone] were, in that order, under 100 nM and over 10000 nM.
Take `CC(C)(C)NS(=O)(=O)c1cccc(-c2ccc3cnc(Nc4ccc(N5CCN(CC(N)=O)CC5)c(F)c4)nn23)c1` [Example 1407, 2-(4-{4-[7-(3-tert-Butylsulfamoyl-phenyl)-pyrrolo[2,1-f][1,2,4]triazin-2-ylamino]-2-fluoro-phenyl}-piperazin-1-yl)-acetamide]: the values for the IC50 at JAK2 and on ALK were under 100 nM and 100 to 1000 nM, respectively.
The like results for `CN(c1ccccc1-c1ccc2cnc(Nc3ccc(C4CCN(CC(N)=O)CC4)cc3)nn12)S(C)(=O)=O` [Example 1408, 2-[4-(4-{7-[2-(Methanesulfonyl-methyl-amino)-phenyl]-pyrrolo[2,1-f][1,2,4]triazin-2-ylamino}-phenyl)-piperidin-1-yl]-acetamide] were, in that order, under 100 nM and under 100 nM.
Regarding `CN1CCC(c2ccc(Nc3ncc4ccc(-c5ccccc5OCC(N)=O)n4n3)cc2)CC1` [Example 1409, 2-(2-{2-[4-(1-Methyl-piperidin-4-yl)-phenylamino]-pyrrolo[2,1-f][1,2,4]triazin-7-yl}-phenoxy)-acetamide], the figures for the IC50 on JAK2 and at ALK were under 100 nM and 100 to 1000 nM, respectively.
The like results for `CN1CCN(C(=O)c2ccc(Nc3ncc4ccc(-c5cccc(S(=O)(=O)NC(C)(C)C)c5)n4n3)cc2)CC1` [Example 1410, N-tert-Butyl-3-{2-[4-(4-methyl-piperazine-1-carbonyl)-phenylamino]-pyrrolo[2,1-f][1,2,4]triazin-7-yl}-benzenesulfonamide] were, in that order, under 100 nM and 100 to 1000 nM.
The like results for `COc1ccc(-c2ccc3cnc(Nc4ccc(C5CCN(CC(N)=O)CC5)cc4)nn23)cn1` [Example 1413, 2-(4-{4-[7-(6-Methoxy-pyridin-3-yl)-pyrrolo[2,1-f][1,2,4]triazin-2-ylamino]-phenyl}-piperidin-1-yl)-acetamide] were, in that order, under 100 nM and 100 to 1000 nM.
The like results for `COc1ccc(-c2ccc3cnc(Nc4ccc(N5CCN(CC(N)=O)CC5)c(F)c4)nn23)cn1` [Example 1414, 2-(4-{2-Fluoro-4-[7-(6-methoxy-pyridin-3-yl)-pyrrolo[2,1-f][1,2,4]triazin-2-ylamino]-phenyl}-piperazin-1-yl)-acetamide] were, in that order, under 100 nM and 1000 to 10000 nM.
